One experiment concerns the target human TLR8 (Homo sapiens (Human), UniProt Q9NR97). The experiment can be described thus: HEK-Blue human TLR8 cells NF-κB SEAP reporter assay. The format is cell-based. To be noted: stimulation for 20 hours. An excerpt:
(§1) For TLR8 and TLR7 activity testing, HEK-Blue human TLR8 or TLR7 cells (Invivogen, San Diego, Calif., USA) are used, respectively. These cells are designed for studying the stimulation of human TLR8 or TLR7 by monitoring the activation of NF-κB. A SEAP (secreted embryonic alkaline phosphatase) reporter gene is placed under the control of the IFN-b minimal promoter fused to five NF-κB and AP-1-binding sites. Therefore the reporter expression is regulated by the NF-κB promoter upon stimulation of human TLR8 or TLR7 for 20 hours. The cell culture supernatant SEAP reporter activity was determined using Quanti Blue kit (Invivogen, San Diego, Ca, USA) at a wavelength of 640 nm, a detection medium that turns purple/blue in the presence of alkaline phosphatase. EC50 values were determined using Activity Base analysis (ID Business Solution, Limited).

For a further experiment, the target named is human TLR7 (Homo sapiens (Human), UniProt Q9NYK1). The experiment can be described thus: HEK-Blue human TLR7 cells NF-κB SEAP reporter assay. The format is cell-based. Conditions: stimulation for 20 hours.
human TLR7, sequence (Q9NYK1 27-1049): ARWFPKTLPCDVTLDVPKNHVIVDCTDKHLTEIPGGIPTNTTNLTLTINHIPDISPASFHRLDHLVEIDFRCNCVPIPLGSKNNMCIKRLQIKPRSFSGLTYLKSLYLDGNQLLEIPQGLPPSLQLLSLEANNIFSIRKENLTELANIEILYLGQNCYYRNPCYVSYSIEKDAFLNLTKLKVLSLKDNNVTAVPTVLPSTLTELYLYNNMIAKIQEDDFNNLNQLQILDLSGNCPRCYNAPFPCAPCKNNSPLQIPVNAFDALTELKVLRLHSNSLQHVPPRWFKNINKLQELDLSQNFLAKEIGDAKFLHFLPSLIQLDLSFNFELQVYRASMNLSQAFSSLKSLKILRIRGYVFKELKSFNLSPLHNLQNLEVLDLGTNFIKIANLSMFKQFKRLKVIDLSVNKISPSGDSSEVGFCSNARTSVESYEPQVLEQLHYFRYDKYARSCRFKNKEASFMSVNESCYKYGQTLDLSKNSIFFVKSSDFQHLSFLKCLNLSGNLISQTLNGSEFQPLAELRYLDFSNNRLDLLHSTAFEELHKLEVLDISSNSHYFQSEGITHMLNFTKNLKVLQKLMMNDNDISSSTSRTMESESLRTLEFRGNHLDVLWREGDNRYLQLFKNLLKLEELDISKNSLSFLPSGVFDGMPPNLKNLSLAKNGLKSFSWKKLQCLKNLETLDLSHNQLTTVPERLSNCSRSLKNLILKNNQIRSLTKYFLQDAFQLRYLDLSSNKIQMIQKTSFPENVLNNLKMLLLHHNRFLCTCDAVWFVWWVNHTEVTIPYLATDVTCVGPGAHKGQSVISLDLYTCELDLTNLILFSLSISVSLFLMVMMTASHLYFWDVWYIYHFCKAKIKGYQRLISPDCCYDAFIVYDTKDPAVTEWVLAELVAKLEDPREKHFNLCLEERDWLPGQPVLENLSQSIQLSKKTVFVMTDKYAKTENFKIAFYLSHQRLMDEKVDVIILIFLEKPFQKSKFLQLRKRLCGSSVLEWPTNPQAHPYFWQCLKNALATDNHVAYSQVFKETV
Source text: as §1

Bounds are passed on as bounds.

For orientation: EC50 means the concentration needed to bring the measured effect to its halfway point. A higher EC50 goes with weaker potency.

human TLR8, sequence (Q9NR97 27-1041): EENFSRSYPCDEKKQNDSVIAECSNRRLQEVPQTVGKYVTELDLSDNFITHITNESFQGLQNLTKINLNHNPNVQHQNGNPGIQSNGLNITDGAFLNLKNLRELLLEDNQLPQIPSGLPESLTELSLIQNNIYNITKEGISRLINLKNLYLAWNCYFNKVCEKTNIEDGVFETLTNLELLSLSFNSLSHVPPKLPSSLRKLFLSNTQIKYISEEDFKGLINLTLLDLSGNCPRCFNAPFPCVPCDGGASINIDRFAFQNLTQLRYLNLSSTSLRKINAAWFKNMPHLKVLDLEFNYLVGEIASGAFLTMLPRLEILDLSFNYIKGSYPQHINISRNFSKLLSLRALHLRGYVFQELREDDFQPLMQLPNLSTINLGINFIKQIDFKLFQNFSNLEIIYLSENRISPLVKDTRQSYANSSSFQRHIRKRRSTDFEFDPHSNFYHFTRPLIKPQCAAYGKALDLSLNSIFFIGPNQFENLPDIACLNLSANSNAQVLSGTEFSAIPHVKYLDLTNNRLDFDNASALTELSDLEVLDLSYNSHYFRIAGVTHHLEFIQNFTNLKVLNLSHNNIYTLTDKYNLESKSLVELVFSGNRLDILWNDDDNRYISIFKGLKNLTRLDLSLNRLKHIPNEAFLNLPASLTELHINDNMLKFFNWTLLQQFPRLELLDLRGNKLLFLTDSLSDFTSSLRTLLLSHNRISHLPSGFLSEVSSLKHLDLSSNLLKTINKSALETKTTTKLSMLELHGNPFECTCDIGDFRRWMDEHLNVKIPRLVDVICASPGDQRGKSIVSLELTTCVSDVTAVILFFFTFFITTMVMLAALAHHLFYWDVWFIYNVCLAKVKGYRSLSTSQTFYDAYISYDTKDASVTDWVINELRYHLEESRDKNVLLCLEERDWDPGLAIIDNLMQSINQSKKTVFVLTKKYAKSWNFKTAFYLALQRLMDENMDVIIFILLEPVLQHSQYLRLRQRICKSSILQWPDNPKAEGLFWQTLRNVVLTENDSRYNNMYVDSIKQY

Regarding `CCCN(CCC)C(=O)C1=Cc2ccc(C(=O)N3CCCC(NCc4ccccc4)C3)cc2N=C(N)C1` (stereo not drawn) [Example 24, 2-Amino-8-[3-(benzylamino)piperidine-1-carbonyl]-N,N-dipropyl-3H-1-benzazepine-4-carboxamide], the EC50 at human TLR8 worked out at 14 nM; on human TLR7, 3100 nM.

Consider `CCCN(CCC)C(=O)C1=Cc2ccc(C(=O)N3CC(CNc4ccccc4)C3)cc2N=C(N)C1` [Example 4, 2-Amino-8-[3-(anilinomethyl)azetidine-1-carbonyl]-N,N-dipropyl-3H-1-benzazepine-4-carboxamide], for which the EC50 was 10 nM at human TLR8 and 10000 nM on human TLR7.

Take `CCCN(CC1CC1)C(=O)C1=Cc2ccc(C(=O)N3CCC(Nc4ccccc4)CC3)cc2N=C(N)C1` [Example 9, 2-Amino-8-(4-anilinopiperidine-1-carbonyl)-N-(cyclopropylmethyl)-N-propyl-3H-1-benzazepine-4-carboxamide]: the EC50 is 20 nM on human TLR8 and 18000 nM at human TLR7.

For `CCCN(CCC)C(=O)C1=Cc2ccc(C(=O)N3CC4CN(c5ccccc5)C4C3)cc2N=C(N)C1` (stereo not drawn) [Example 16, 2-Amino-8-(6-phenyl-3,6-diazabicyclo[3.2.0]heptane-3-carbonyl)-N,N-dipropyl-3H-1-benzazepine-4-carboxamide], the values for the EC50 on human TLR8 and on human TLR7 were 29 nM and 12000 nM, respectively.

Regarding `CCCN(CCC)C(=O)C1=Cc2ccc(C(=O)N3CCC(CNc4ccccc4)CC3)cc2N=C(N)C1` [Example 20, 2-amino-8-[4-(anilinomethyl)piperidine-1-carbonyl]-N,N-dipropyl-3H-1-benzazepine-4-carboxamide], the EC50 was 20 nM at human TLR8 and 10000 nM on human TLR7.

Turning to `CCCN(CCC)C(=O)C1=Cc2ccc(C(=O)N3CCN(Cc4ccccc4)CC3)cc2N=C(N)C1` [Example 10, 2-Amino-8-(4-benzylpiperazine-1-carbonyl)-N,N-dipropyl-3H-1-benzazepine-4-carboxamide], the values for the EC50 on human TLR8 and at human TLR7 were 5 nM and 14000 nM, respectively.

As for `CCCN(CCC)C(=O)C1=Cc2ccc(C(=O)N3CCCC(Nc4ccccc4)C3)cc2N=C(N)C1` (stereo not drawn) [Example 23, 2-Amino-8-(3-anilinopiperidine-1-carbonyl)-N,N-dipropyl-3H-1-benzazepine-4-carboxamide], the values for the EC50 at human TLR8 and on human TLR7 were 8 nM and 400 nM, respectively.

On to `CCCN(CCC)C(=O)C1=Cc2ccc(C(=O)N3CC4CC(C3)N4c3ccccc3)cc2N=C(N)C1` [Example 12, 2-Amino-8-(6-phenyl-3,6-diazabicyclo[3.1.1]heptane-3-carbonyl)-N,N-dipropyl-3H-1-benzazepine-4-carboxamide], for which the results for the EC50 on human TLR8 and on human TLR7 were 22 nM and 11000 nM, respectively.

In the case of `C/C=C/COC1CN(C(=O)c2ccc3c(c2)N=C(N)CC(C(=O)N(CCC)CCC)=C3)C1` [Example 22, 2-Amino-8-[3-[(E)-but-2-enoxy]azetidine-1-carbonyl]-N,N-dipropyl-3H-1-benzazepine-4-carboxamide], the EC50 is 12 nM on human TLR8 and 32000 nM at human TLR7.

Consider `CCCN(CCC)C(=O)C1=Cc2ccc(C(=O)N3CCC(Nc4ccc(CN)cc4)C3)cc2N=C(N)C1` (stereo not drawn) [Example 18, 2-Amino-8-[3-[4-(aminomethyl)anilino]pyrrolidine-1-carbonyl]-N,N-dipropyl-3H-1-benzazepine-4-carboxamide], for which the EC50 was 31 nM at human TLR8 and more than 100000 nM at human TLR7.

As for `CCCN(CCC)C(=O)C1=Cc2ccc(C(=O)N3CCC(NCc4ccccc4)C3)cc2N=C(N)C1` (stereo not drawn) [Example 19, 2-Amino-8-[3-(benzylamino)pyrrolidine-1-carbonyl]-N,N-dipropyl-3H-1-benzazepine-4-carboxamide], the EC50 on human TLR8 is 14 nM; on human TLR7, 6600 nM.

For the molecule `CCCN(CCC)C(=O)C1=Cc2ccc(C(=O)N3CCCC3)cc2N=C(N)C1` [Example 8, 2-Amino-N,N-dipropyl-8-(pyrrolidine-1-carbonyl)-3H-1-benzazepine-4-carboxamide], the results for the concentration giving a half-maximal response (EC50) at human TLR8 and at human TLR7 were 15 nM and 21000 nM, respectively.

With `CCCN(CCC)C(=O)C1=Cc2ccc(C(=O)N3CC4(CCN(c5ccccc5)C4)C3)cc2N=C(N)C1` [Example 7, 2-Amino-8-(7-phenyl-2,7-diazaspiro[3.4]octane-2-carbonyl)-N,N-dipropyl-3H-1-benzazepine-4-carboxamide], the EC50 at human TLR8 is 10 nM; on human TLR7 it was more than 100000 nM.

Take `CCCN(CCC)C(=O)C1=Cc2ccc(C(=O)N3CCC(CNc4ccccc4)C3)cc2N=C(N)C1` (stereo not drawn) [Example 21, 2-Amino-8-[3-(anilinomethyl)pyrrolidine-1-carbonyl]-N,N-dipropyl-3H-1-benzazepine-4-carboxamide]: the concentration giving a half-maximal response (EC50) came to 9 nM on human TLR8 and 6980 nM at human TLR7.

As for `CCCN(CCC)C(=O)C1=Cc2ccc(C(=O)N3CCN(c4ccccc4)CC3)cc2N=C(N)C1` [Example 6, 2-Amino-8-(4-phenylpiperazine-1-carbonyl)-N,N-dipropyl-3H-1-benzazepine-4-carboxamide], the EC50 on human TLR8 amounted to 25 nM; at human TLR7 it was 9000 nM.

Regarding `CCCN(CCC)C(=O)C1=Cc2ccc(C(=O)N3CC4(C3)CN(c3ccc(C)cc3)C4)cc2N=C(N)C1` [Example 1, 2-Amino-N,N-dipropyl-8-[6-(p-tolyl)-2,6-diazaspiro[3.3]heptane-2-carbonyl]-3H-1-benzazepine-4-carboxamide], the EC50 on human TLR8 is 5 nM; on human TLR7, more than 100000 nM.

Consider `CCCN(CCC)C(=O)C1=Cc2ccc(C(=O)N3CCC4(CC3)CN(c3ccccc3)C4)cc2N=C(N)C1` [Example 13, 2-Amino-8-(2-phenyl-2,7-diazaspiro[3.5]nonane-7-carbonyl)-N,N-dipropyl-3H-1-benzazepine-4-carboxamide], for which the EC50 was 7 nM on human TLR8 and more than 100000 nM on human TLR7.

Turning to `CCCN(CCC)C(=O)C1=Cc2ccc(C(=O)N3CCC(Nc4ccccc4)C3)cc2N=C(N)C1` (stereo not drawn) [Example 5, 2-Amino-8-(3-anilinopyrrolidine-1-carbonyl)-N,N-dipropyl-3H-1-benzazepine-4-carboxamide], the EC50 at human TLR8 amounted to 4 nM; on human TLR7 it was 14000 nM.

In the case of `CCCCOC1CN(C(=O)c2ccc3c(c2)N=C(N)CC(C(=O)N(CCC)CCC)=C3)C1` [Example 25, 2-Amino-8-(3-butoxyazetidine-1-carbonyl)-N,N-dipropyl-3H-1-benzazepine-4-carboxamide], the EC50 turned out to be 8 nM at human TLR8 and 31100 nM on human TLR7.

Take `CCCN(CCC)C(=O)C1=Cc2ccc(C(=O)N3CC(Nc4ccccc4)C3)cc2N=C(N)C1` [Example 3, 2-Amino-8-(3-anilinoazetidine-1-carbonyl)-N,N-dipropyl-3H-1-benzazepine-4-carboxamide]: the EC50 on human TLR8 was 5 nM; on human TLR7, 24000 nM.

As to `CCCN(CCC)C(=O)C1=Cc2ccc(C(=O)N3CC(NCc4ccccc4)C3)cc2N=C(N)C1` [Example 17, 2-Amino-8-[3-(benzylamino)azetidine-1-carbonyl]-N,N-dipropyl-3H-1-benzazepine-4-carboxamide], the half-maximal effective concentration (EC50) on human TLR8 amounted to 18 nM; on human TLR7 it was 17000 nM.

With `CCCN(CCC)C(=O)C1=Cc2ccc(C(=O)N3CC4CCC(C3)N4c3ccccc3)cc2N=C(N)C1` [Example 15, 2-Amino-8-(8-phenyl-3,8-diazabicyclo[3.2.1]octane-3-carbonyl)-N,N-dipropyl-3H-1-benzazepine-4-carboxamide], the EC50 came to 10 nM on human TLR8 and 16000 nM on human TLR7.

As to `CCCN(CCC)C(=O)C1=Cc2ccc(C(=O)N3CCC(Nc4ccccc4)CC3)cc2N=C(N)C1` [Example 2, 2-Amino-8-(4-anilinopiperidine-1-carbonyl)-N,N-dipropyl-3H-1-benzazepine-4-carboxamide], the concentration for a half-maximal effect (EC50) was 6 nM at human TLR8 and 7900 nM at human TLR7.

On to `CCCN(CCC)C(=O)C1=Cc2ccc(C(=O)N3CC4(CCN(c5ccccc5)CC4)C3)cc2N=C(N)C1` [Example 14, 2-Amino-8-(7-phenyl-2,7-diazaspiro[3.5]nonane-2-carbonyl)-N,N-dipropyl-3H-1-benzazepine-4-carboxamide], for which the results for the 50% effective concentration (EC50) on human TLR8 and on human TLR7 were 9 nM and 33000 nM, respectively.

These data come from US10370338B2, “Benzazepine dicarboxamide compounds with tertiary amide function” (Hoffmann-La Roche Inc., priority 2016, dated 2019).
